According to patent publication US20250228865A1, “COMPOUNDS FOR ENHANCING READ THROUGH OF GENES CONTAINING PREMATURE TERMINATION CODONS AND METHODS FOR MAKING AND USING THE SAME” (Sanofi US Services Inc., priority 2022, published 2025):

Columns and labels:
[1] = system: recombinant human CFTR carrying the premature stop codon (PTC) mutation R1162X; test: CFTR-PTC mutant translation readthrough, Nanoluc tagged CFTR luminescence (R1162X cell line); assay type: cell-based; details: for CFTR R1162X ACTIVITY Fold 10 μM G-418: fold over 10 μM G-418, in combination with G418; for EC50: in combination with G418, 16HBE cells, read-out: CFTR R1162X ACTIVITY EC50
In short: (§1)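 Readthrough is the 48 h compound-induced luminescence increase scaled to that of maximal G418 (125-250 μM). Compounds run from 50 μM final in 2-fold steps, ±10 μM G418, on 16HBE lines carrying Nanoluc-tagged CFTR G542X (extracellular loop 4 tag) or R1162X (C-terminal tag), with 3 μM VX-809 present.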

[2] = system: recombinant human CFTR carrying the premature stop codon (PTC) mutation G542X; test: CFTR-PTC mutant translation readthrough, Nanoluc tagged CFTR luminescence (G542X cell line); assay type: cell-based; details: in combination with G418, G542X cell line; for EC50: 16HBE cells; for CFTR G542X ACTIVITY Fold 10 μM G-418: fold over 10 μM G-418
In short: as §1

EC50 [1] [nM]	EC50 [2] [nM]	SMILES	CFTR R1162X ACTIVITY Fold 10 μM G-418 [1]	CFTR G542X ACTIVITY Fold 10 μM G-418 [2]
< 1000	< 1000	NC(=O)N1CCN(c2ncc(OCc3c(Cl)cccc3Cl)cn2)CC1CO (stereo not shown)	A′ (A′ = ≥10X)	A′ (A′ = ≥10X)
1000 to 10000	1000 to 10000	O=C1CN(c2ncc(OCc3c(Cl)cccc3C(F)(F)F)cn2)CC(CO)N1 (stereo not shown)	A′ (A′ = ≥10X)	A′ (A′ = ≥10X)
< 1000	1000 to 10000	O=C(O)C1CN(c2ncc(OCc3c(Cl)cccc3C(F)(F)F)cn2)CCO1 (stereo not shown) [4-[5-[[2-chloro-6-(trifluoromethyl)phenyl]methoxy]pyrimidin-]		C′ (C′ = <5X)
> 10000	> 10000	CN(C)CC1CN(c2ncc(OCc3c(Cl)cccc3Cl)cn2)CCO1 (stereo not shown)	B′ (B′ = ≥5X to <10X)	A′ (A′ = ≥10X)
1000 to 10000	< 1000	OCc1cnn(-c2ncc(OCc3c(Cl)cccc3C(F)(F)F)cn2)n1		A′ (A′ = ≥10X)
1000 to 10000	1000 to 10000	Cc1cccc(C(F)(F)F)c1COc1cnc(N2CCN(CCOCCO)CC2)nc1	A′ (A′ = ≥10X)	A′ (A′ = ≥10X)
< 1000	< 1000	Cc1cccc(C(F)(F)F)c1COc1cnc(N2CCN(C(N)=O)CC2)nc1	A′ (A′ = ≥10X)	A′ (A′ = ≥10X)
1000 to 10000	< 1000	OCC1CN(c2ncc(OCc3c(Cl)cccc3Cl)cn2)CCO1 (stereo not shown) [[4-[5-[(2,6-dichlorophenyl)methoxy]pyrimidin-2-yl]morpholin-2-yl]methanol]	A′ (A′ = ≥10X)	A′ (A′ = ≥10X)
< 1000	< 1000	OC1CCN(c2ncc(OCc3c(Cl)cccc3Cl)cn2)CC1 [1-[5-[(2,6-dichlorophenyl)methoxy]pyrimidin-2-yl]piperidin-4-ol]	A′ (A′ = ≥10X)	A′ (A′ = ≥10X)
< 1000	< 1000	Cc1cccc(C(F)(F)F)c1COc1cnc(N2CCNC(=O)C2)nc1 [4-[5-[[2-methyl-6-(trifluoromethyl)phenyl]methoxy]pyrimidin-2-yl]piperazin-2-one]	A′ (A′ = ≥10X)	A′ (A′ = ≥10X)
> 10000	1000 to 10000	O=C(O)C1CN(c2ncc(OCc3c(Cl)cccc3C(F)(F)F)cn2)CCO1 (stereo not shown) [4-(5-{[2-chloro-6-(trifluoromethyl)phenyl]methoxy}pyrimidin-]		
< 1000	< 1000	Cc1cccc(C(F)(F)F)c1COc1cnc(N2CCN(C(N)=O)[C@@H](C)C2)nc1	A′ (A′ = ≥10X)	A′ (A′ = ≥10X)
1000 to 10000	1000 to 10000	Cc1cccc(C(F)(F)F)c1COc1cnc(N2CC[C@@H](C(N)=O)C2)nc1	A′ (A′ = ≥10X)	A′ (A′ = ≥10X)
< 1000	< 1000	OCC1CN(c2ncc(OCc3c(Cl)cccc3C3CC3)cn2)CCO1 (stereo not shown)	A′ (A′ = ≥10X)	A′ (A′ = ≥10X)
< 1000	< 1000	CNC(=O)N1CCN(c2ncc(OCc3c(C)cccc3C(F)(F)F)cn2)CC1	A′ (A′ = ≥10X)	A′ (A′ = ≥10X)
1000 to 10000	1000 to 10000	NC(=O)N1CC2(C1)CN(c1ncc(OCc3c(Cl)cccc3C(F)(F)F)cn1)C2	B′ (B′ = ≥5X to <10X)	A′ (A′ = ≥10X)
< 1000	1000 to 10000	O=C(O)c1ncn(-c2ccc(OCc3c(Cl)cccc3C(F)(F)F)cn2)n1 [1-[5-[[2-chloro-6-(trifluoromethyl)phenyl]methoxy]-2-pyridyl]		B′ (B′ = ≥5X to <10X)
1000 to 10000	1000 to 10000	O=CNCC1CCCN(c2ncc(OCc3c(Cl)cccc3Cl)cn2)C1 (stereo not shown)	B′ (B′ = ≥5X to <10X)	B′ (B′ = ≥5X to <10X)
> 10000	1000 to 10000	O=C(O)c1ncn(-c2ccc(OCc3c(Cl)cccc3C(F)(F)F)cn2)n1 [1-(5-{[2-chloro-6-(trifluoromethyl)phenyl]methoxy]pyridin-2-]		C′ (C′ = <5X)
< 1000	< 1000	NC(=O)c1ccn(-c2ncc(OCc3c(Cl)cccc3C(F)(F)F)cn2)n1	A′ (A′ = ≥10X)	A′ (A′ = ≥10X)
< 1000	< 1000	Cc1cccc(C(C)(F)F)c1COc1cnc(N2CCN(C(N)=O)CC2)nc1	A′ (A′ = ≥10X)	A′ (A′ = ≥10X)
1000 to 10000	1000 to 10000	O=C1COC(CO)CN1c1ccc(OCc2c(Cl)cccc2C(F)(F)F)cn1 (stereo not shown)	A′ (A′ = ≥10X)	A′ (A′ = ≥10X)

Further lines, the compound ahead of its results:

SMILES	EC50 [1] [nM]	EC50 [2] [nM]	CFTR R1162X ACTIVITY Fold 10 μM G-418 [1]	CFTR G542X ACTIVITY Fold 10 μM G-418 [2]
OCc1cn(-c2ccc(OCc3cc(Cl)cc(Cl)c3)cc2)cn1 [[1-[4-[(3,5-dichlorophenyl)methoxy]phenyl]imidazol-4-yl]methanol]	> 10000	1000 to 10000	C′ (C′ = <5X)	
OCc1ccn(-c2ncc(OCc3c(Cl)cccc3Cl)cn2)n1 [[1-[5-[(2,6-dichlorophenyl)methoxy]pyrimidin-2-yl]pyrazol-3-yl]methanol]	1000 to 10000	< 1000	A′ (A′ = ≥10X)	A′ (A′ = ≥10X)
Cc1cccc(C(F)(F)F)c1COc1ccc2nc(CO)cn2c1	> 10000	> 10000	A′ (A′ = ≥10X)	A′ (A′ = ≥10X)
NCc1cn(-c2ccc(OCc3c(Cl)cccc3Cl)cc2)cn1 [Example 227, [1-[4-[(2,6-dichlorophenyl)methoxy]phenyl]imidazol-4-yl]methanamine]	1000 to 10000	1000 to 10000	B′ (B′ = ≥5X to <10X)	B′ (B′ = ≥5X to <10X)
Cc1cccc(C(F)(F)F)c1COc1cnc(NC(=O)N(C)C)nc1	1000 to 10000	1000 to 10000	C′ (C′ = <5X)	A′ (A′ = ≥10X)
CN(CC1CNCCO1)c1ncc(OCc2c(Cl)cccc2Cl)cn1 (stereo not shown)	1000 to 10000	1000 to 10000	C′ (C′ = <5X)	C′ (C′ = <5X)
Cc1cccc(C(F)(F)F)c1COc1ccc(N2CC(=O)N(C)C2=O)nc1	< 1000	< 1000	A′ (A′ = ≥10X)	A′ (A′ = ≥10X)
OCc1ccn(-c2ccc(OCc3c(Cl)cccc3Cl)cc2)n1 [[1-[4-[(2,6-dichlorophenyl)methoxy]phenyl]pyrazol-3-yl]methanol]	1000 to 10000	< 1000	A′ (A′ = ≥10X)	A′ (A′ = ≥10X)
Cc1cccc(C(F)(F)F)c1COc1ccc(N2C(=O)NC3(CCCC3)C2=O)cc1	1000 to 10000	< 1000	B′ (B′ = ≥5X to <10X)	A′ (A′ = ≥10X)
NCC1CN(c2ccc(OCc3c(Cl)cccc3Cl)cc2)C(=O)O1 (stereo not shown) [5-(aminomethyl)-3-[4-[(2,6-dichlorophenyl)methoxy]phenyl]oxazolidin-2-one]	> 10000	1000 to 10000	A′ (A′ = ≥10X)	B′ (B′ = ≥5X to <10X)
O=C1O[C@@H](CO)CN1c1ccc(OCc2c(Cl)cccc2Cl)cc1 [(5R)-3-[4-[(2,6-dichlorophenyl)methoxy]phenyl]-5-(hydroxymethyl)oxazolidin-2-one]	1000 to 10000	1000 to 10000	A′ (A′ = ≥10X)	A′ (A′ = ≥10X)
NC(=O)N1C[C@@H]2CN(c3ncc(OCc4c(Cl)cccc4Cl)cn3)C[C@@H]2C1	1000 to 10000	1000 to 10000	B′ (B′ = ≥5X to <10X)	A′ (A′ = ≥10X)
O=C1OC(CO)CN1c1ccc(OCc2c(Cl)cccc2Cl)cn1 (stereo not shown) [3-[5-[(2,6-dichlorophenyl)methoxy]-2-pyridyl]-5-(hydroxymethyl)oxazolidin-2-one]	1000 to 10000	1000 to 10000	A′ (A′ = ≥10X)	A′ (A′ = ≥10X)
O=C1OC(CO)CN1c1ccc(OCc2cc(Cl)cc(Cl)c2)cc1 (stereo not shown) [3-[4-[(3,5-dichlorophenyl)methoxy]phenyl]-5-(hydroxymethyl)oxazolidin-2-one]	> 10000	1000 to 10000	B′ (B′ = ≥5X to <10X)	B′ (B′ = ≥5X to <10X)
OCc1ncn(-c2ccc(OCc3c(Cl)cccc3OC(F)F)cc2)n1	1000 to 10000	1000 to 10000	B′ (B′ = ≥5X to <10X)	A′ (A′ = ≥10X)
OCc1nnc(-c2ccc(OCc3c(Cl)cccc3Cl)cc2)o1 [[5-[4-[(2,6-dichlorophenyl)methoxy]phenyl]-1,3,4-oxadiazol-2-yl]methanol]	< 1000	< 1000	A′ (A′ = ≥10X)	A′ (A′ = ≥10X)
